Measured values as given in patent publication US3974281A, “5-Methyl-1-phenyl-2-(1H)-pyridone compositions and methods of use” (priority 1974, dated 1976).
“Also recorded” adds a separate entry of the source.

Experiments:
[1] = test system: experimentally-induced fever in albino rabbits; assay: Anti-pyretic activity, experimentally-induced fever in rabbits; assay type: in vivo
Procedure: anti-pyretic activity testing is based upon the ability of the drug to suppress the experimentally-induced fever in albino rabbits (F. M. Berger, et al. J. Pharmacology and Experimental Therapeutics, Vol. 127, No. 1, 1959 based upon the original presentations of G. Brownlee Quart. J. Pharm; Vol. 10, Pg. 609, 1937 and Quart. J. Pharm., Vol. 12, Pg. 45, 1939). The drugs under test are administered intraperitoneally and the response is compared to that of saline controls. The average change in temperature over a period of three hours following the administration of aminopyrine (100 mg./kg. i.p.), AMR-69 (100 mg./kg. i.p.) and the saline (isotonic) controls were as follows:
The effective anti-pyretic activity of AMR-69 in rabbits has been noted previously.

blood = assay: Blood studies after administration for efficacy, and acute and chronic toxicity; assay type: in vivo; conditions: therapeutic or sublethal amounts; rats, mice, rabbits and dogs
serum uric acid [2] = assay: Reduction in serum uric acid levels, dogs; assay type: in vivo, Beagle type dogs
Procedure: adult male and female Beagle type dogs from a closed colony weighing approximately 10 to 15 kilograms were utilized in the study. There were seven to nine dogs per group. AMR-69 was given orally in capsules to two groups and the third group received placebo capsules. […] The method for determining serum uric acid was performed using the Autotechnicon and the SMR-12 series of analyses. The specific method was based upon the procedure of Lofland et al. The mean serum uric acid values obtained with repeated doses of AMR-69 were as follows: […]

[3] = Absorption into the blood stream; conditions: in vivo
serum uric acid [4] = assay: Reduction in serum uric acid levels, rats; assay type: in vivo, albino male and female rats
Procedure: normal adult albino male and female rats were given repeated graded doses of AMR-69 and the effect upon serum uric acid levels was determined. There were 10 males and 10 females in each group. The control group received the placebo and the drug was administered orally by admixture to the food. The serum uric acid determination was one of a series performed utilizing the Autotechnicon technique (Lofland et al., 1965 Technicon Symposium) using the Standard SMA-12 procedure (based upon procedure of Bittner et al., AM. J. Clin. Path. 40:423, 1963).
The lowering in serum uric acid levels shown by AMR-69 in tests on rats and on dogs has been noted.

[5] = Tolerability on administration over extended periods; assay type: in vivo
Excerpt: It may be administered orally, topically, parenterally, intradermally, by inhalation spray in formulations containing conventional non-toxic pharmaceutically acceptable carriers, adjuvants and vehicles. The term parenteral as used herein includes subcutaneous injections, intravenous, intromuscular, intracisternal or intrathecal injection or infusion techniques.

rabbit leg muscle = assay: Local toxicity of intramuscular injection into rabbit leg muscle; assay type: in vivo, New Zealand white rabbits
Procedure: six healthy adult New Zealand white rabbits from a stock colony were injected into the large muscle mass of the leg with a 2.0 milliliter volume of 2.0% aqueous solution of AMR-69. The response was compared to the intramuscular injection of 2.0 ml. of an isotonic solution of sodium chloride. The animals were carefully observed for any evidence of discomfort for a period of three hours. […] Three hours after the injection, the animals were sacrificed and a careful dissection was made around the injection site of the: (1) skin, (2) subcutaneous fascia, and (3) muscle tissue for a gross examination under a low powder binocular mircroscope for any tissue reaction. […] Similarly, no tissue reaction was found following the intramuscular injection of the isotonic saline. One change noted in two rabbits reflected a hemorrhage from a vein which was cut as the hypodermic needle passed into the tissue. After the gross examination, the muscle masses were dissected out, removed and preserved in buffered formalin for histological examination.

[6] = test system: edema (swelling), experimental inflammation in the hind limb of rats; assay: Anti-inflammatory activity, reduction of edema of experimentally inflamed hind limb; assay type: in vivo, albino rats; conditions: oral
Procedure: anti-inflammatory activity was assayed by the method described by Margolin (ibid.) utilizing albino rats. The anti-inflammatory bio-assay basis is the ability to reduce the edema (swelling) when an experimental inflammation is induced in the hind limb of the rats.

[7] = test system: rats with the hind limb inflammed; assay: Analgesic activity, rats with inflamed hind limb (absence of squeal on flexion of inflamed ankle joint); assay type: in vivo, rat; conditions: oral
Procedure: the end-point for analgesic testing in rats with the hind limb inflammed is based on the absence of a squeal in response to flexion of the inflammed ankle joint (Method described by S. Margolin, Proceedings of an International Symposium on Non-Steroidal Anti-Inflammatory Drugs, Excerpta Medica International Congress, Series No. 82, 1964).
With AMR-93, the median effective dose was 325 ± 45 mg./kg.

[8] = test system: mucous linings of the respiratory system; assay: Clinical trials on humans with sinusitis, post-nasal drip, rhinitis, conjunctivitis, headache, earache, sore throat; assay type: in vivo, human; conditions: oral capsule, approximately 400 mg. per capsule
[9] = test system: glucose level in the serum; assay: Reduction in serum glucose levels, nine week diet test in rats; assay type: in vivo, weanling rats of the Carworth Farms CFE Strain
rat lung tissues = assay: Protection of mucous membranes against noxious agents, gross examination of rat lung tissues; assay type: in vivo
[10] = test system: fasted albino mice (Flanders); assay: Acute toxicity in mice; assay type: in vivo; conditions: oral and intraperitoneal
Procedure: (§1) in fasted albino mice (Flanders) the LD50 for AMR-69 and aminopyrine was determined by standard procedures with the following results: […]

Acute toxicity in mice = assay type: in vivo; conditions: mouse, in vivo, ip; fasted albino mice, intraperitoneal; read-out: Intraperitoneally LD50
Procedure: as §1

Solubility = assay type: physicochemical
dog lung tissues = assay: Protection of mucous membranes against noxious agents, microscopic examination of dog lung tissues; assay type: in vivo
[11] = test system: mucous membranes of the nasopharynx and lungs; assay: Protection of mucous membranes of the nasopharynx and lungs, comparison with related pyridones; assay type: in vivo; conditions: comparison with related pyridones
skin conditions = assay: Effect on skin conditions (dermatitis, itching, insect sting, poison ivy) in humans; assay type: in vivo, human

Cc1ccc(=O)n(-c2ccccc2)c1 [AMR-69, 5-methyl-1-phenyl-2-(1H)-pyridone]
average change in temperature over a period of three hours ([1]; 100 mg./kg. i.p., fevered albino rabbits, saline controls +0.9 ±0.17°C): -0.4 ±0.12 °C
reduction in fever as compared to the saline control ([1]; 100 mg./kg. i.p., aminopyrine t = 6.6, p < 0.01, AMR-69 t = 6.3, p < 0.01): highly significant
anti-pyretic activity ([1]; rabbits, induced fever): effective anti-pyretic agent
blood dyscrasias (blood): no indication of blood dyscrasias
reduction in serum uric acid values versus control (serum uric acid [2]; oral capsules (P 0.05)): significantly different from the control
mean serum uric acid, 25 mg/kg (serum uric acid [2]; repeated oral capsules 25 mg/kg, placebo 0.78 ± 0.046 mg.%, T = 2.84 (P<0.02)): 0.59 ± 0.051 mg.%
mean serum uric acid, 75 mg/kg (serum uric acid [2]; repeated oral capsules 75 mg/kg, placebo 0.78 ± 0.046 mg.%, T = 2.40 (P<0.05)): 0.60 ± 0.049 mg.%
absorption in the blood stream [3]: very rapidly absorbed in the blood stream
crystal deposition of uric acid or its salts (joints, liver, muscles, kidneys) (serum uric acid [4]; microscopic examination of focal tissues of sacrificed animals): no evidence of crystal deposition
reduction in serum uric acid, significance (serum uric acid [4]; rats, 30 and 100 mg./kg.): statistically significant
serum uric acid, 30 mg./kg. (serum uric acid [4]; rats, repeated oral 30 mg./kg. in food, placebo 1.53 ± 0.20 mg.%, T = 1.92 (P = 0.06)): 1.05 ± 0.15 mg.%
serum uric acid, 100 mg./kg. (serum uric acid [4]; rats, repeated oral 100 mg./kg. in food, placebo 1.53 ± 0.20 mg.%, T = 3.25 (P< 0.01)): .78 ± 0.11 mg %
irritation of body tissues at effective dosage levels ([5]; effective dosage levels): relatively non-irritating to the various body tissues
side reactions on administration over extended periods ([5]; extended periods): no untoward side reactions
microscopic examination of injection sites versus isotonic saline (rabbit leg muscle; 2.0 ml of 2.0% aqueous solution i.m.): no difference between those of the isotonic saline and the parenteral AMR-69
histological examination of excised muscle (rabbit leg muscle; 2.0 ml of 2.0% aqueous solution i.m., stained tissue sections): absence of any edema, erythema, chemosis, or necrosis
tissue reaction at injection site, gross examination (skin, subcutaneous fascia, muscle) (rabbit leg muscle; 2.0 ml of 2.0% aqueous solution i.m., three hours): No evidence of tissue reaction was observed
discomfort after intramuscular injection (rabbit leg muscle; 2.0 ml of 2.0% aqueous solution, three hours): No discomfort was evident
ED50 ([6]; Rattus norvegicus, read-out: oral median effective dose (ED50), anti-inflammatory): 200 ± 46 mg/kg
onset of the anti-inflammatory therapeutic effect ([6]; vs aminopyrine): more rapid onset of the therapeutic effect
ED50 ([7]; Rattus norvegicus, read-out: oral ED50 (median analgesic dose)): 145 ± 26 mg/kg
analgesic effectiveness by the oral route as compared to aminopyrine [7]: as effective as aminopyrine
onset of analgesic effect as compared to aminopyrine [7]: more rapid onset of analgesic effect
noxious effect of acute and chronic infections of the nasopharynx, cranial sinuses [8]: arrested and relieved
mean glucose, female, 600 mg./kg./day ([9]; female rats, 600 mg./kg./day in diet, control 173.0 mg.%): 144.8 mg.%
mean glucose, female, 900 mg./kg./day ([9]; female rats, 900 mg./kg./day in diet, control 173.0 mg.%): 136 mg/dL
mean glucose in the serum, male, 600 mg./kg./day ([9]; male rats, 600 mg./kg./day in diet, nine weeks, control 155.8 mg.%): 131.8 mg.%
mean glucose in the serum, male, 900 mg./kg./day ([9]; male rats, 900 mg./kg./day in diet, nine weeks, control 155.8 mg.%): 132.6 mg.%
protection against noxious focal respiratory tract pathology (petechiae, edema, hemorrhage, focal infection) (rat lung tissues): affording protection against noxious focal respiratory tract pathology
lethal dosage level / toxicity as compared to aminopyrine [10]: markedly lower toxicity; also recorded: significant higher lethal dosage level as compared to aminopyrine
LD50 (Acute toxicity in mice): 420 ± 9 mg/kg
solubility compared with other analgesic uricosuric agents (Solubility): more readily soluble than other analgesic uricosuric agents
protection against noxious focal respiratory tract pathology (petechiae, edema, hemorrhage, focal infection) (dog lung tissues): affording protection against noxious focal respiratory tract pathology
protection of mucous membranes of the nasopharynx and lungs [11]: effective
relief from the symptom, skin conditions (skin conditions; oral capsule (procedure of preceding section)): Relief from the symptom was rapid in each instance
relief from itching, contact dermatitis (poison ivy) (skin conditions; powder applied directly to the affected skin areas): substantially immediate relief from the characteristic itching
time to cessation of weeping of the affected areas (skin conditions; powder applied topically, poison ivy): thirty
